# Source: PubChem BioAssay (NCI)
#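 Briefly, cells in 96-well plates were exposed to five compound concentrations for 48 h, and endpoints were estimated by linear interpolation. TGI denotes the concentration required for complete inhibition of growth.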
# Assays:
# Assay in all cases: NCI anticancer screen, dose series, 48 h
# RXF-631 renal = tested on: RXF-631 renal
# KM20L2 colon = tested on: KM20L2 colon
# RXF 393 renal = tested on: RXF 393 renal
# NCI-H522 lung = tested on: NCI-H522 lung
# SNB-78 CNS = tested on: SNB-78 CNS
# M19-MEL melanoma = tested on: M19-MEL melanoma
# SF-295 CNS = tested on: SF-295 CNS
# MALME-3M melanoma = tested on: MALME-3M melanoma
# OVCAR-5 ovarian = tested on: OVCAR-5 ovarian
# SK-MEL-5 melanoma = tested on: SK-MEL-5 melanoma
# HT29 colon = tested on: HT29 colon
# A498 renal = tested on: A498 renal
# SF-268 CNS = tested on: SF-268 CNS
# XF 498 CNS = tested on: XF 498 CNS
# KM12 colon = tested on: KM12 colon
# SN12C renal = tested on: SN12C renal
# UO-31 renal = tested on: UO-31 renal
# 786-0 renal = tested on: 786-0 renal
# CCRF-CEM leukemia = tested on: CCRF-CEM leukemia
# DMS 273 small cell lung = tested on: DMS 273 small cell lung
# K-562 leukemia = tested on: K-562 leukemia
# DMS 114 small cell lung = tested on: DMS 114 small cell lung
# SW-620 colon = tested on: SW-620 colon
# SK-MEL-28 melanoma = tested on: SK-MEL-28 melanoma
# UACC-62 melanoma = tested on: UACC-62 melanoma
# CAKI-1 renal = tested on: CAKI-1 renal
# SNB-19 CNS = tested on: SNB-19 CNS
# EKVX NSCLC = tested on: EKVX NSCLC
# SK-OV-3 ovarian = tested on: SK-OV-3 ovarian
# NCI-H23 lung = tested on: NCI-H23 lung
# U251 CNS = tested on: U251 CNS
# HOP-18 NSCLC = tested on: HOP-18 NSCLC
# HOP-62 NSCLC = tested on: HOP-62 NSCLC
# LOX IMVI melanoma = tested on: LOX IMVI melanoma
# HCC-2998 colon = tested on: HCC-2998 colon
# COLO 205 colon = tested on: COLO 205 colon
# LXFL 529 NSCLC = tested on: LXFL 529 NSCLC
# IGROV1 ovarian = tested on: IGROV1 ovarian
# M14 melanoma = tested on: M14 melanoma
# DLD-1 colon = tested on: DLD-1 colon
# UACC-257 melanoma = tested on: UACC-257 melanoma
# NCI-H460 lung = tested on: NCI-H460 lung
# A549 NSCLC = tested on: A549 NSCLC
# OVCAR-8 ovarian = tested on: OVCAR-8 ovarian
# HOP-92 NSCLC = tested on: HOP-92 NSCLC
# SF-539 CNS = tested on: SF-539 CNS
# HCT-15 colon = tested on: HCT-15 colon
# SK-MEL-2 melanoma = tested on: SK-MEL-2 melanoma
# TK-10 renal = tested on: TK-10 renal
# HL-60(TB) leukemia = tested on: HL-60(TB) leukemia
# NCI-H226 lung = tested on: NCI-H226 lung
# ACHN renal = tested on: ACHN renal
# SNB-75 CNS = tested on: SNB-75 CNS
# OVCAR-3 ovarian = tested on: OVCAR-3 ovarian
# OVCAR-4 ovarian = tested on: OVCAR-4 ovarian
# HCT-116 colon = tested on: HCT-116 colon
# RPMI-8226 leukemia = tested on: RPMI-8226 leukemia
# MOLT-4 leukemia = tested on: MOLT-4 leukemia
# SR leukemia = tested on: SR leukemia
# DU-145 prostate = tested on: DU-145 prostate
# MDA-MB-435 = tested on: MDA-MB-435
# BT-549 breast = tested on: BT-549 breast
# PC-3 prostate = tested on: PC-3 prostate
# MDA-N = tested on: MDA-N
# T-47D breast = tested on: T-47D breast
# HS 578T breast = tested on: HS 578T breast
compound,measurement,setting,value
CCOC(=O)CC1=CSC2=NCCN12,TGI,RXF-631 renal,> 100 µM
same,TGI,KM20L2 colon,> 100 µM
same,TGI,RXF 393 renal,> 100 µM
same,TGI,NCI-H522 lung,> 100 µM
same,TGI,SNB-78 CNS,> 100 µM
same,TGI,M19-MEL melanoma,> 100 µM
same,TGI,SF-295 CNS,> 100 µM
same,TGI,MALME-3M melanoma,> 100 µM
same,TGI,OVCAR-5 ovarian,> 100 µM
same,TGI,SK-MEL-5 melanoma,> 100 µM
same,TGI,HT29 colon,> 100 µM
same,TGI,A498 renal,> 100 µM
same,TGI,SF-268 CNS,> 100 µM
same,TGI,XF 498 CNS,> 100 µM
same,TGI,KM12 colon,> 100 µM
same,TGI,SN12C renal,> 100 µM
same,TGI,UO-31 renal,> 100 µM
same,TGI,786-0 renal,> 100 µM
same,TGI,CCRF-CEM leukemia,> 100 µM
same,TGI,DMS 273 small cell lung,> 100 µM
same,TGI,K-562 leukemia,> 100 µM
same,TGI,DMS 114 small cell lung,> 100 µM
same,TGI,SW-620 colon,> 100 µM
same,TGI,SK-MEL-28 melanoma,> 100 µM
same,TGI,UACC-62 melanoma,> 100 µM
same,TGI,CAKI-1 renal,> 100 µM
same,TGI,SNB-19 CNS,> 100 µM
same,TGI,EKVX NSCLC,> 100 µM
same,TGI,SK-OV-3 ovarian,> 100 µM
same,TGI,NCI-H23 lung,> 100 µM
same,TGI,U251 CNS,> 100 µM
same,TGI,HOP-18 NSCLC,> 100 µM
same,TGI,HOP-62 NSCLC,> 100 µM
same,TGI,LOX IMVI melanoma,> 100 µM
same,TGI,HCC-2998 colon,> 100 µM
same,TGI,COLO 205 colon,> 100 µM
same,TGI,LXFL 529 NSCLC,> 100 µM
same,TGI,IGROV1 ovarian,> 100 µM
same,TGI,M14 melanoma,> 100 µM
same,TGI,DLD-1 colon,> 100 µM
same,TGI,UACC-257 melanoma,> 100 µM
same,TGI,NCI-H460 lung,> 100 µM
same,TGI,A549 NSCLC,> 100 µM
same,TGI,OVCAR-8 ovarian,> 100 µM
same,TGI,HOP-92 NSCLC,> 100 µM
same,TGI,SF-539 CNS,> 100 µM
same,TGI,HCT-15 colon,> 100 µM
same,TGI,SK-MEL-2 melanoma,> 100 µM
same,TGI,TK-10 renal,> 100 µM
same,TGI,HL-60(TB) leukemia,> 100 µM
same,TGI,NCI-H226 lung,> 100 µM
same,TGI,ACHN renal,> 100 µM
same,TGI,SNB-75 CNS,> 100 µM
same,TGI,OVCAR-3 ovarian,> 100 µM
same,TGI,OVCAR-4 ovarian,> 100 µM
same,TGI,HCT-116 colon,> 100 µM
CC(c1cccc2ccccc12)/[N+]([O-])=C/c1ccccc1 (stereo not given),TGI,RXF-631 renal,> 100 µM
same,TGI,KM20L2 colon,> 100 µM
same,TGI,RXF 393 renal,> 100 µM
same,TGI,NCI-H522 lung,> 100 µM
same,TGI,SF-295 CNS,> 100 µM
same,TGI,MALME-3M melanoma,> 100 µM
same,TGI,RPMI-8226 leukemia,> 100 µM
same,TGI,OVCAR-5 ovarian,> 100 µM
same,TGI,SK-MEL-5 melanoma,> 100 µM
same,TGI,HT29 colon,> 100 µM
same,TGI,A498 renal,> 100 µM
same,TGI,SF-268 CNS,> 100 µM
same,TGI,XF 498 CNS,> 100 µM
same,TGI,KM12 colon,> 100 µM
same,TGI,UO-31 renal,> 100 µM
same,TGI,786-0 renal,> 100 µM
same,TGI,CCRF-CEM leukemia,> 100 µM
same,TGI,DMS 273 small cell lung,> 100 µM
same,TGI,K-562 leukemia,> 100 µM
same,TGI,DMS 114 small cell lung,> 100 µM
same,TGI,MOLT-4 leukemia,> 100 µM
same,TGI,SW-620 colon,> 100 µM
same,TGI,SK-MEL-28 melanoma,> 100 µM
same,TGI,SNB-19 CNS,> 100 µM
same,TGI,EKVX NSCLC,> 100 µM
same,TGI,SK-OV-3 ovarian,> 100 µM
same,TGI,NCI-H23 lung,> 100 µM
same,TGI,U251 CNS,> 100 µM
same,TGI,HOP-18 NSCLC,> 100 µM
same,TGI,HOP-62 NSCLC,> 100 µM
same,TGI,LOX IMVI melanoma,> 100 µM
same,TGI,HCC-2998 colon,> 100 µM
same,TGI,COLO 205 colon,> 100 µM
same,TGI,LXFL 529 NSCLC,> 100 µM
same,TGI,IGROV1 ovarian,> 100 µM
same,TGI,DLD-1 colon,> 100 µM
same,TGI,UACC-257 melanoma,> 100 µM
same,TGI,NCI-H460 lung,> 100 µM
same,TGI,A549 NSCLC,> 100 µM
same,TGI,OVCAR-8 ovarian,> 100 µM
same,TGI,HOP-92 NSCLC,> 100 µM
same,TGI,SF-539 CNS,> 100 µM
same,TGI,SK-MEL-2 melanoma,> 100 µM
same,TGI,TK-10 renal,> 100 µM
same,TGI,HL-60(TB) leukemia,> 100 µM
same,TGI,ACHN renal,> 100 µM
same,TGI,SNB-75 CNS,> 100 µM
same,TGI,OVCAR-3 ovarian,> 100 µM
same,TGI,HCT-116 colon,> 100 µM
CC1(C)OCC(CO)(Nc2nc(N3CC3)nc(N3CC3)n2)CO1,TGI,KM20L2 colon,51.8 µM
same,TGI,RXF 393 renal,28.6 µM
same,TGI,NCI-H522 lung,33.8 µM
same,TGI,SNB-78 CNS,> 100 µM
same,TGI,M19-MEL melanoma,34.4 µM
same,TGI,SF-295 CNS,20.3 µM
same,TGI,MALME-3M melanoma,42.1 µM
same,TGI,RPMI-8226 leukemia,> 100 µM
same,TGI,SR leukemia,28.9 µM
same,TGI,OVCAR-5 ovarian,50.3 µM
same,TGI,SK-MEL-5 melanoma,22.1 µM
same,TGI,HT29 colon,53.7 µM
same,TGI,A498 renal,24.2 µM
same,TGI,DU-145 prostate,8.91 µM
same,TGI,SF-268 CNS,27.6 µM
same,TGI,MDA-MB-435,46.4 µM
same,TGI,BT-549 breast,93.5 µM
same,TGI,XF 498 CNS,29.3 µM
same,TGI,KM12 colon,43.3 µM
same,TGI,SN12C renal,58.6 µM
same,TGI,UO-31 renal,23.1 µM
same,TGI,786-0 renal,18.7 µM
same,TGI,CCRF-CEM leukemia,> 83.4 µM
same,TGI,PC-3 prostate,> 100 µM
same,TGI,DMS 273 small cell lung,25.8 µM
same,TGI,K-562 leukemia,> 100 µM
same,TGI,DMS 114 small cell lung,27.2 µM
same,TGI,MDA-N,27.9 µM
same,TGI,MOLT-4 leukemia,19 µM
same,TGI,SW-620 colon,64.1 µM
same,TGI,SK-MEL-28 melanoma,53 µM
same,TGI,UACC-62 melanoma,14 µM
same,TGI,CAKI-1 renal,13.8 µM
same,TGI,SNB-19 CNS,62.1 µM
same,TGI,EKVX NSCLC,90.8 µM
same,TGI,SK-OV-3 ovarian,34.2 µM
same,TGI,NCI-H23 lung,16.3 µM
same,TGI,U251 CNS,31.7 µM
same,TGI,HOP-18 NSCLC,> 87.6 µM
same,TGI,HOP-62 NSCLC,30.9 µM
same,TGI,LOX IMVI melanoma,32.4 µM
same,TGI,HCC-2998 colon,36.3 µM
same,TGI,COLO 205 colon,60.9 µM
same,TGI,LXFL 529 NSCLC,> 100 µM
same,TGI,IGROV1 ovarian,58.5 µM
same,TGI,M14 melanoma,25.5 µM
same,TGI,DLD-1 colon,> 93 µM
same,TGI,UACC-257 melanoma,45.1 µM
same,TGI,NCI-H460 lung,29 µM
same,TGI,A549 NSCLC,34.3 µM
same,TGI,OVCAR-8 ovarian,33.1 µM
same,TGI,HOP-92 NSCLC,51.5 µM
same,TGI,SF-539 CNS,27 µM
same,TGI,HCT-15 colon,45.8 µM
same,TGI,SK-MEL-2 melanoma,40 µM
same,TGI,TK-10 renal,67.5 µM
same,TGI,HL-60(TB) leukemia,25.3 µM
same,TGI,NCI-H226 lung,28.5 µM
same,TGI,ACHN renal,13.9 µM
same,TGI,SNB-75 CNS,33.1 µM
same,TGI,OVCAR-3 ovarian,49.4 µM
same,TGI,OVCAR-4 ovarian,41.9 µM
same,TGI,T-47D breast,45 µM
same,TGI,HCT-116 colon,27.5 µM
same,TGI,HS 578T breast,42.6 µM
